According to the supplement of paper PMC10307832:

Assays:
Experiment in all cases: relative viability (nuclei count vs DMSO), 5 days (fraction); higher = more cells survive
Masitinib + Vorinostat = compound: Cc1ccc(NC(=O)c2ccc(CN3CCN(C)CC3)cc2)cc1Nc1nc(-c2cccnc2)cs1 [Masitinib] + O=C(CCCCCCC(=O)Nc1ccccc1)NO [Vorinostat] (partner 1 µM)
In short: (§1)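 A single step with final 0.05% Triton X-100, 1% formaldehyde and 1 ug/ml Hoechst fixed the cells and stained nuclei 5 days after treatment. Lung cancer cell lines in 1536-well plates had been treated by pin tool the day after seeding with one drug alone or a fixed anchor-drug dose plus five library-drug doses (not always all listed) in √10 steps, and nuclei were counted on 4× images. Relative viability is the ratio of nuclei in treated wells to nuclei in vehicle wells, taken as the median of duplicate plates.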

[1] = compound: CC1=CC(=CC=C1)NC2=NC(=CS2)C3=CC=NC=C3 + N=C(N)NC(=N)NCCc1ccccc1 [Phenformin] (partner 250 µM)
In short: as §1

Masitinib + Lapatinib = compound: Cc1ccc(NC(=O)c2ccc(CN3CCN(C)CC3)cc2)cc1Nc1nc(-c2cccnc2)cs1 [Masitinib] + CS(=O)(=O)CCNCc1ccc(-c2ccc3ncnc(Nc4ccc(OCc5cccc(F)c5)c(Cl)c4)c3c2)o1 [Lapatinib] (partner 2 µM)
In short: as §1

[2] = compound: CC1=CC(=CC=C1)NC2=NC(=CS2)C3=CC=NC=C3 + O=C(CCCCCCC(=O)Nc1ccccc1)NO [Vorinostat] (partner 1 µM)
In short: as §1

Row | Cell Line | relative viability (Masitinib + Vorinostat; first compound 0.01 µM) | relative viability (Masitinib + Vorinostat; first compound 0.03162 µM) | relative viability (Masitinib + Vorinostat; first compound 0.1 µM) | relative viability (Masitinib + Vorinostat; first compound 0.3162 µM) | relative viability (Masitinib + Vorinostat; first compound 1 µM) | relative viability ([1]; first compound 0.08 µM) | relative viability ([1]; first compound 0.253 µM) | relative viability ([1]; first compound 0.8 µM) | relative viability ([1]; first compound 2.53 µM) | relative viability ([1]; first compound 8 µM) | relative viability (Masitinib + Lapatinib; first compound 0.01 µM) | relative viability (Masitinib + Lapatinib; first compound 0.03162 µM) | relative viability (Masitinib + Lapatinib; first compound 0.1 µM) | relative viability (Masitinib + Lapatinib; first compound 0.3162 µM) | relative viability (Masitinib + Lapatinib; first compound 1 µM) | relative viability ([2]; first compound 0.08 µM) | relative viability ([2]; first compound 0.253 µM) | relative viability ([2]; first compound 0.8 µM) | relative viability ([2]; first compound 2.53 µM) | relative viability ([2]; first compound 8 µM)
1 | NCI-H2085 | 0.7 | 0.829 | 0.67 | 0.701 | 0.822 | 0.709 | 0.67 | 0.723 | 0.676 | 0.684 | 0.732 | 0.736 | 0.839 | 0.703 | 0.664 | 0.763 | 0.763 | 0.693 | 0.755 | 0.645
2 | COR-L 105 | 0.741 | 1.09 | 0.971 | 0.78 | 0.841 | 0.429 | 0.495 | 0.534 | 0.388 | 0.496 | 0.298 | 0.379 | 0.4 | 0.36 | 0.312 | 0.831 | 0.776 | 0.724 | 0.724 | 0.818
3 | SK-LU-1 | 0.779 | 0.844 | 0.744 | 0.926 | 0.774 | 0.452 | 0.471 | – | 0.731 | 0.63 | 0.928 | 0.853 | 1.04 | 0.986 | 0.779 | 0.76 | 0.796 | 0.53 | 0.799 | 0.727
4 | PC-3 [JPC-3] | 0.753 | 0.554 | 0.779 | 0.748 | 0.667 | 0.426 | 0.451 | 0.461 | 0.486 | 0.498 | 0.474 | 0.416 | 0.462 | 0.367 | 0.422 | 0.579 | – | 0.811 | 0.575 | 0.803
5 | NCI-H661 | 0.785 | 0.801 | 0.774 | 0.805 | 0.821 | 0.281 | 0.3 | 0.278 | 0.285 | 0.284 | 0.52 | 0.229 | 0.566 | 0.492 | 0.41 | 0.764 | 0.753 | 0.747 | 0.718 | 0.666
6 | NCI-H2087 | 0.532 | 0.828 | 0.672 | 0.72 | 0.746 | 0.373 | 0.421 | 0.449 | 0.575 | 0.446 | 0.757 | 1.06 | 0.77 | 1.22 | 0.861 | 0.615 | 0.725 | 0.762 | 0.574 | 0.708
7 | NCI-H1755 | 0.617 | 0.732 | 0.647 | 0.758 | 0.693 | 0.505 | 0.524 | 0.566 | 0.598 | 0.546 | – | 0.998 | 0.711 | 1.07 | 0.995 | 0.621 | 0.761 | 0.726 | 0.611 | 0.605
8 | NCI-H2228 | 0.604 | 0.59 | 0.693 | 0.593 | 0.665 | 0.265 | 0.35 | 0.266 | 0.313 | 0.332 | 0.972 | 1.32 | 1.14 | 1.38 | 1.06 | 0.343 | 0.514 | 0.42 | 0.412 | 0.824
9 | EMC-BAC-2 | 0.38 | – | 0.441 | 0.445 | 0.335 | 0.415 | 0.505 | 0.58 | 0.541 | 0.491 | 0.793 | 0.911 | 0.837 | 0.9 | 0.966 | 0.367 | – | 0.579 | 0.343 | 0.425
10 | NCI-H2009 | 0.664 | 0.772 | 0.69 | 0.654 | 0.602 | 0.449 | 0.482 | 0.46 | 0.51 | 0.347 | 0.567 | 0.984 | 0.719 | 0.834 | 0.9 | 0.624 | 0.664 | 0.593 | 0.642 | 0.7
11 | NCI-H596 | 0.702 | 0.546 | 0.545 | 0.533 | 0.588 | 0.727 | 0.789 | 0.733 | 0.68 | 0.669 | 1.13 | 1.2 | 1.07 | 1.06 | 0.911 | 0.552 | 0.489 | 0.453 | 0.529 | 0.422
12 | NCI-H650 | 0.458 | 0.527 | 0.415 | 0.484 | 0.404 | 0.426 | 0.407 | 0.476 | 0.372 | 0.502 | 0.927 | 0.859 | 1.09 | 1.07 | 1.1 | 0.414 | 0.429 | 0.395 | 0.624 | 0.599
13 | NCI-H1915 | – | 0.488 | – | 0.505 | 0.541 | 0.38 | 0.352 | 0.371 | 0.372 | 0.372 | – | 1.06 | 0.678 | 1.06 | 0.984 | 0.442 | 0.452 | 0.477 | 0.501 | 0.525
14 | SW 1573 | 0.645 | 0.763 | 0.929 | 0.968 | 0.973 | 0.316 | 0.36 | 0.352 | 0.389 | 0.399 | 0.986 | 1.17 | 1.2 | 0.73 | 0.987 | 0.739 | 0.748 | 0.815 | 0.727 | 0.687
15 | NCI-H1355 | 0.631 | 0.518 | 0.633 | 0.464 | 0.577 | 0.343 | 0.376 | 0.391 | 0.429 | 0.362 | 0.691 | 0.94 | 0.807 | 0.781 | 0.951 | 0.521 | 0.458 | 0.429 | 0.403 | 0.469
